Measurements from ChEMBL document CHEMBL1201862, “PubChem BioAssay data set” (2004).
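Growth conditions: 96-well plates. Treatment: test compound, 48 hours, 5 concentrations. Analysis: linear interpolation between bracketing concentrations; unreached endpoints set to highest concentration. GI50: concentration for 50% inhibition of growth.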 Calls of active or inactive are those of the source. Rule as the data show it: active = GI50 up to about 1.1 µM and inactive = higher.

Tests used:
Assay in all cases: inhibition of tumour cell growth, NCI panel, 48 h
SNB-75 = test system: SNB-75
HCT-15 = test system: HCT-15
HCT-116 = test system: HCT-116
SF-539 = test system: SF-539
RPMI-8226 = test system: RPMI-8226
Malme-3M = test system: Malme-3M
UO-31 = test system: UO-31
SR = test system: SR
HL-60 = test system: HL-60
SK-OV-3 = test system: SK-OV-3
MOLT-4 = test system: MOLT-4
UACC-62 = test system: UACC-62
CCRF-CEM = test system: CCRF-CEM
EKVX = test system: EKVX
786-0 = test system: 786-0
TK-10 = test system: TK-10
U-251 = test system: U-251
COLO 205 = test system: COLO 205
OVCAR-8 = test system: OVCAR-8
NCI-H23 = test system: NCI-H23
NCI/ADR-RES = test system: NCI/ADR-RES
HT-29 = test system: HT-29
A549 = test system: A549
K562 = test system: K562
OVCAR-3 = test system: OVCAR-3
HOP-92 = test system: HOP-92
UACC-257 = test system: UACC-257
A498 = test system: A498
NCI-H226 = test system: NCI-H226
HOP-62 = test system: HOP-62
DU-145 = test system: DU-145
Hs-578T = test system: Hs-578T
IGROV-1 = test system: IGROV-1
BT-549 = test system: BT-549
ACHN = test system: ACHN
SF-268 = test system: SF-268
SF-295 = test system: SF-295
MDA-MB-435 = test system: MDA-MB-435
SK-MEL-5 = test system: SK-MEL-5
SK-MEL-2 = test system: SK-MEL-2
SK-MEL-28 = test system: SK-MEL-28
LOX IMVI = test system: LOX IMVI
RXF 393 = test system: RXF 393
SW-620 = test system: SW-620
MCF7 = test system: MCF7
NCI-H522 = test system: NCI-H522
MDA-MB-231 = test system: MDA-MB-231
OVCAR-4 = test system: OVCAR-4
KM12 = test system: KM12
T47D = test system: T47D
HCC 2998 = test system: HCC 2998
CAKI-1 = test system: CAKI-1
OVCAR-5 = test system: OVCAR-5
NCI-H460 = test system: NCI-H460
PC-3 = test system: PC-3
SN12C = test system: SN12C
M14 = test system: M14
SNB-19 = test system: SNB-19

## CN(/N=C\c1ccc2ccccc2c1)C1=NCCN1
SNB-75
  GI50: 10.6 µM (inactive)
HCT-15
  GI50: 25.2 µM
HCT-116
  GI50: 15.8 µM (inactive)
SF-539
  GI50: 17.7 µM (inactive)
RPMI-8226
  GI50: 17.3 µM (inactive)
Malme-3M
  GI50: 15.6 µM (inactive)
UO-31
  GI50: 13.2 µM (inactive)
SR
  GI50: 17.3 µM (inactive)
HL-60
  GI50: 10.4 µM (inactive)
SK-OV-3
  GI50: 35.8 µM (inactive)
MOLT-4
  GI50: 14.7 µM (inactive)
UACC-62
  GI50: 18.3 µM (inactive)
CCRF-CEM
  GI50: 24.3 µM (inactive)
EKVX
  GI50: 19.8 µM (inactive)
786-0
  GI50: 15.6 µM (inactive)
TK-10
  GI50: 13.2 µM (inactive)
U-251
  GI50: 18 µM (inactive)
COLO 205
  GI50: 15.3 µM (inactive)
OVCAR-8
  GI50: 30.3 µM (inactive)
NCI-H23
  GI50: 30.7 µM (inactive)
NCI/ADR-RES
  GI50: 20.6 µM (inactive)
HT-29
  GI50: 13.3 µM (inactive)
A549
  GI50: 15.8 µM (inactive)
K562
  GI50: 18.1 µM (inactive)
OVCAR-3
  GI50: 31.9 µM (inactive)
HOP-92
  GI50: 0.0817 µM (active)
UACC-257
  GI50: 14.8 µM (inactive)
A498
  GI50: 12.1 µM (inactive)
NCI-H226
  GI50: 16.3 µM (inactive)
HOP-62
  GI50: 18.5 µM (inactive)
DU-145
  GI50: 25.6 µM (inactive)
Hs-578T
  GI50: 20.4 µM (inactive)
IGROV-1
  GI50: 19.5 µM (inactive)
BT-549
  GI50: 12.1 µM (inactive)
ACHN
  GI50: 23.1 µM (inactive)
SF-268
  GI50: 27.5 µM (inactive)
SF-295
  GI50: 14.4 µM (inactive)
MDA-MB-435
  GI50: 15.6 µM (inactive)
SK-MEL-5
  GI50: 14.3 µM (inactive)
SK-MEL-2
  GI50: 15.2 µM (inactive)
SK-MEL-28
  GI50: 13.6 µM (inactive)
LOX IMVI
  GI50: 11.2 µM (inactive)
RXF 393
  GI50: 8.63 µM (inactive)
SW-620
  GI50: 19.1 µM (inactive)
MCF7
  GI50: 16.3 µM (inactive)
NCI-H522
  GI50: 15.7 µM (inactive)
MDA-MB-231
  GI50: 16.4 µM (inactive)
OVCAR-4
  GI50: 20.8 µM (inactive)
KM12
  GI50: 15.7 µM (inactive)
T47D
  GI50: 26.2 µM (inactive)
HCC 2998
  GI50: 16.2 µM (inactive)
CAKI-1
  GI50: 10.3 µM (inactive)
OVCAR-5
  GI50: 34.8 µM (inactive)
NCI-H460
  GI50: 12.5 µM (inactive)

## O=C(O)CCC1NC(/C(=C/c2ccccc2O)NC(=O)c2ccccc2)OC1=O (stereo unspecified)
SNB-75
  GI50: 23.2 µM (inactive)
HCT-15
  GI50: > 100 µM
HCT-116
  GI50: 67.3 µM (inactive)
SF-539
  GI50: 95.3 µM (inactive)
RPMI-8226
  GI50: > 100 µM (inactive)
Malme-3M
  GI50: > 100 µM (inactive)
PC-3
  GI50: > 100 µM (inactive)
UO-31
  GI50: 18 µM (inactive)
HL-60
  GI50: > 100 µM (inactive)
SK-OV-3
  GI50: 44.2 µM (inactive)
MOLT-4
  GI50: > 100 µM (inactive)
UACC-62
  GI50: > 100 µM (inactive)
CCRF-CEM
  GI50: > 100 µM (inactive)
EKVX
  GI50: > 100 µM (inactive)
786-0
  GI50: 46.7 µM (inactive)
TK-10
  GI50: 56.1 µM (inactive)
U-251
  GI50: 37.2 µM (inactive)
COLO 205
  GI50: > 100 µM (inactive)
OVCAR-8
  GI50: 46.8 µM (inactive)
NCI-H23
  GI50: > 100 µM (inactive)
NCI/ADR-RES
  GI50: 88.5 µM (inactive)
HT-29
  GI50: > 100 µM (inactive)
SN12C
  GI50: > 100 µM (inactive)
A549
  GI50: > 100 µM (inactive)
K562
  GI50: > 100 µM (inactive)
M14
  GI50: > 100 µM (inactive)
OVCAR-3
  GI50: > 100 µM (inactive)
HOP-92
  GI50: > 100 µM (inactive)
UACC-257
  GI50: 27.5 µM (inactive)
A498
  GI50: > 100 µM (inactive)
NCI-H226
  GI50: 72.3 µM (inactive)
HOP-62
  GI50: 17.5 µM (inactive)
DU-145
  GI50: > 100 µM (inactive)
Hs-578T
  GI50: 43.8 µM (inactive)
IGROV-1
  GI50: 30.5 µM (inactive)
BT-549
  GI50: 72.6 µM (inactive)
ACHN
  GI50: 33 µM (inactive)
SF-268
  GI50: 61.5 µM (inactive)
SF-295
  GI50: 35.4 µM (inactive)
MDA-MB-435
  GI50: 15.8 µM (inactive)
SK-MEL-5
  GI50: > 100 µM (inactive)
SK-MEL-2
  GI50: > 100 µM (inactive)
SK-MEL-28
  GI50: > 100 µM (inactive)
LOX IMVI
  GI50: > 100 µM (inactive)
RXF 393
  GI50: 34.2 µM (inactive)
SW-620
  GI50: > 100 µM (inactive)
MCF7
  GI50: 3.39 µM (inactive)
NCI-H522
  GI50: 64.1 µM (inactive)
MDA-MB-231
  GI50: 46.9 µM (inactive)
OVCAR-4
  GI50: > 100 µM (inactive)
KM12
  GI50: 4.57 µM (inactive)
SNB-19
  GI50: 32.5 µM (inactive)
T47D
  GI50: 16 µM (inactive)
HCC 2998
  GI50: > 100 µM (inactive)
CAKI-1
  GI50: > 100 µM (inactive)
OVCAR-5
  GI50: > 100 µM (inactive)
NCI-H460
  GI50: > 100 µM (inactive)

## CCCCI(O)OS(=O)(=O)c1ccc(C)cc1
SNB-75
  GI50: 73.5 µM (inactive)
HCT-15
  GI50: > 100 µM
HCT-116
  GI50: > 100 µM (inactive)
SF-539
  GI50: > 100 µM (inactive)
RPMI-8226
  GI50: 50.6 µM (inactive)
PC-3
  GI50: > 100 µM (inactive)
UO-31
  GI50: 23.9 µM (inactive)
SR
  GI50: 55.3 µM (inactive)
SK-OV-3
  GI50: > 100 µM (inactive)
MOLT-4
  GI50: > 100 µM (inactive)
UACC-62
  GI50: 89.1 µM (inactive)
CCRF-CEM
  GI50: 53.5 µM (inactive)
EKVX
  GI50: 38 µM (inactive)
786-0
  GI50: > 100 µM (inactive)
TK-10
  GI50: > 100 µM (inactive)
U-251
  GI50: > 100 µM (inactive)
COLO 205
  GI50: > 100 µM (inactive)
OVCAR-8
  GI50: > 100 µM (inactive)
NCI-H23
  GI50: > 100 µM (inactive)
NCI/ADR-RES
  GI50: 29.6 µM (inactive)
HT-29
  GI50: > 100 µM (inactive)
SN12C
  GI50: > 100 µM (inactive)
A549
  GI50: 66.2 µM (inactive)
K562
  GI50: 67.8 µM (inactive)
M14
  GI50: > 100 µM (inactive)
OVCAR-3
  GI50: > 100 µM (inactive)
HOP-92
  GI50: > 100 µM (inactive)
UACC-257
  GI50: > 100 µM (inactive)
A498
  GI50: > 100 µM (inactive)
NCI-H226
  GI50: > 100 µM (inactive)
HOP-62
  GI50: > 100 µM (inactive)
DU-145
  GI50: > 100 µM (inactive)
Hs-578T
  GI50: > 100 µM (inactive)
IGROV-1
  GI50: 28.2 µM (inactive)
BT-549
  GI50: > 100 µM (inactive)
ACHN
  GI50: > 100 µM (inactive)
SF-268
  GI50: > 100 µM (inactive)
SF-295
  GI50: > 100 µM (inactive)
MDA-MB-435
  GI50: > 100 µM (inactive)
SK-MEL-5
  GI50: > 100 µM (inactive)
SK-MEL-2
  GI50: > 100 µM (inactive)
SK-MEL-28
  GI50: > 100 µM (inactive)
LOX IMVI
  GI50: 13.9 µM (inactive)
RXF 393
  GI50: > 100 µM (inactive)
SW-620
  GI50: > 100 µM (inactive)
MCF7
  GI50: > 100 µM (inactive)
NCI-H522
  GI50: 22.5 µM (inactive)
MDA-MB-231
  GI50: > 100 µM (inactive)
OVCAR-4
  GI50: > 100 µM (inactive)
KM12
  GI50: 56.8 µM (inactive)
SNB-19
  GI50: > 100 µM (inactive)
T47D
  GI50: > 100 µM (inactive)
HCC 2998
  GI50: > 100 µM (inactive)
CAKI-1
  GI50: > 100 µM (inactive)
OVCAR-5
  GI50: > 100 µM (inactive)
